Experimental data from patent US12564622B2, “Preventing cytokine release syndrome” (priority 2017, dated 2026).
Where “and” joins values, the source holds several entries; their conditions need not be identical. Equal entries are not always repeated. Entries after “also recorded” stand apart in the source; their conditions may differ.

How the values were obtained:
[1] = test system: mouse peritoneal macrophages; test: Peritoneal macrophage catecholamine and cytokine production; type: cell-based; details: for cytokine release: ANP 5 μg/ml or metyrosine 2 mM
Experimental: Isolation of elicited macrophages from mouse peritoneum followed previously described procedures with minor modifications (Zhang et al., “The isolation and characterization of murine macrophages,” Curr Protoc Immunol Chapter 14, Unit 14.1 (November, 2008)). Four days prior to the harvest, 1 ml of 3% Brewer's thioglycollate medium (BD) was injected IP in female 2-3 months old BALB/c mice. Mice were euthanized by cervical dislocation and the skin of the belly was cut open without penetrating the muscle layer. Using a syringe with a 22 G needle, 5 ml of cold PBS containing 5 mM EDTA was injected carefully into the peritoneal cavity. After massaging gently for 1-2 minutes, a 1-ml syringe without needle was used to extract the peritoneal contents containing residential macrophages. Cells were centrifuged at 400 g for 10 minutes at 4° C., resuspended in DMEM/F12 medium supplemented with 1% FBS and antibiotics and distributed in 48-well plates at a concentration of 0.5×10^6 cells/well. After incubation at 37° C. for 2 hours, cells were rinsed three times with 0.5 ml media and then 250 μl of media was added to each well. […] For stimulation, the cells were incubated for 24 hours with LPS at 50 μg/ml. […] To stimulate macrophages, they were exposed to epinephrine at 15 ng/ml for 24 hours at 37° C. After the incubation, supernatants were collected from the wells and mixed with 5 mM EDTA and 4 mM sodium metabisulfite for preservation of catecholamines and stored at −80° C. […] Thus, any epinephrine identified in the media must have been secreted by cells in the last 24 hours prior to harvesting the media.
Isolation of elicited macrophages from mouse peritoneum followed previously described procedures with minor modifications66. Four days prior to the harvest, 1 ml of 3% Brewer's thioglycollate medium (BD) was injected IP in female 2-3 months old BALB/c mice or 4-6 weeks old conditional TH knockout mice. Mice were euthanized by cervical dislocation and the skin of the belly was cut open without penetrating the muscle layer. Using a syringe with a 25 G needle, 5 ml of cold PBS containing 5 mM EDTA was injected carefully into the peritoneal cavity. After massaging gently for 1-2 minutes, a 1-ml syringe without needle was used to extract the peritoneal contents containing residential macrophages. Cells were centrifuged at 400 g for 10 minutes at 4° C., resuspended in DMEM/F12 medium supplemented with 1% FBS and antibiotics and distributed in 48-well plates at a concentration of 0.5×10^6 cells/well. After incubation at 37° C. for 2 hours, cells were rinsed three times with 0.5 ml media and then 250 μl of media was added to each well. […] For stimulation, the cells were incubated for 24 hours with LPS at 50 μg/ml. […] To stimulate macrophages, they were exposed to epinephrine at 15 ng/ml for 24 hours at 37° C. After the incubation, supernatants were collected from the wells and mixed with 5 mM EDTA and 4 mM sodium metabisulfite for preservation of catecholamines and stored at −80° C. […] Thus, any epinephrine identified in the media must have been secreted by cells in the last 24 hours prior to harvesting the media.

[2] = test system: polymicrobial peritoneal sepsis induced by CLP; test: Cecal ligation and puncture (CLP) sepsis; type: in vivo, mouse (C57BL/6); details: for circulating pro-inflammatory cytokines after CLP: pre-treatment
Experimental: (§1) Cecal ligation and puncture (CLP) was performed as described elsewhere (Rittirsch et al., 2009 Nature Protocols, 4:31-6). Briefly, six-to-eight week old female C57BL/6 mice were anesthetized and following abdominal incision, the cecum was ligated at about 14 the distance from the luminal entry to its tip. The ligated cecum was punctured through and through with a 22 G needle at ½ and ¾ the distance from the luminal entry to its tip. A small amount of the cecal content was gently pushed out of the four openings into the peritoneum. Subsequently, the abdominal muscles were sutured and the skin was closed with two staples. Five hundred microliters of saline were immediately injected subcutaneously to the mice. For the groups treated with antibiotics, imipenem (Sigma) was injected subcutaneously at 25 mg/kg starting from 20 hours after CLP, with a schedule of twice a day on day one and once a day thereafter for 10 days. Human ANP (Sigma) was dissolved in saline, loaded in mini-osmotic pumps (ALZET) with a release rate of 12 μg/day and implanted subcutaneously in the back of mice 12 hours before the CLP, with pumps loaded with saline serving as controls. Metyrosine was freshly dissolved in PBS and injected IP at 60 mg/kg/day for three days before the CLP. Twenty minutes before the CLP, metyrosine was injected at 60 mg/kg IP into the right side. The control groups were injected with PBS. For the following 4 days, metyrosine was injected at 30 mg/kg/day IP into the right side. Hydration of mice was supported by daily subcutaneous injection of 0.5 ml saline.
as §1, with “CLP” for “Cecal ligation and puncture (CLP)”, “(see, e.g., Rittirsch” for “(Rittirsch”, “2008 Rev Immunol 8:776-787).” for “2009 Nature Protocols, 4:31-6).”, “6-8 weeks” for “six-to-eight week”, “¼” for “14”, “days.” for “days. Human ANP (Sigma) was dissolved in saline, loaded in mini-osmotic pumps (ALZET) with a release rate of 12 μg/day and implanted subcutaneously in the back of mice 12 hours before the CLP, with pumps loaded with saline serving as controls.”

[3] = LPS 50 μg/ml, 24 hours, pre-incubation 10 minutes with ANP 5 μg/ml or metyrosine 2 mM
[4] = LPS, epinephrine or the combination of both, metyrosine 2 mM

For `CC[C@H](C)[C@@H]1NC(=O)[C@H](CCCNC(=N)N)NC(=O)[C@H](CC(=O)O)NC(=O)[C@H](CCSC)NC(=O)[C@H](CCCNC(=N)N)NC(=O)CNC(=O)CNC(=O)[C@H](Cc2ccccc2)NC(=O)[C@@H](NC(=O)[C@H](CO)NC(=O)[C@H](CO)NC(=O)[C@H](CCCNC(=N)N)NC(=O)[C@H](CCCNC(=N)N)NC(=O)[C@H](CC(C)C)NC(=O)[C@@H](N)CO)CSSC[C@@H](C(=O)N[C@@H](CC(N)=O)C(=O)N[C@@H](CO)C(=O)N[C@@H](Cc2ccccc2)C(=O)N[C@@H](CCCNC(=N)N)C(=O)N[C@@H](Cc2ccc(O)cc2)C(=O)O)NC(=O)CNC(=O)[C@H](CC(C)C)NC(=O)CNC(=O)[C@H](CO)NC(=O)[C@H](CCC(N)=O)NC(=O)[C@H](C)NC(=O)CNC1=O` [ANP, atrial natriuretic peptide], the cytokine release ([1]; LPS 50 μg/ml, 24 hours) was “reduction in the cytokine levels”, the catecholamine production [1, 3] was “reduce the production of all three major catecholamines; also recorded: suppress the increased production; also recorded: effectively blocked” and the catecholamine production ([1]; epinephrine 15 ng/ml stimulated, ANP pre-treatment) was “inhibited this production”. For the same compound, the “catecholamine and cytokine (IL-6, TNF-α, MIP-2, KC) production” value ([1]; epinephrine alone 15 ng/ml) was “also suppressed”, the amplified inflammatory response ([1]; epinephrine in combination with LPS) was “inhibited” and the “circulating pro-inflammatory cytokines after CLP” value ([2]; 24 hours after CLP) was “greatly reduced”. The “survival after CLP” value ([2]; ANP by osmotic pump implanted 12 hours before CLP) was “almost half of the animals survived the acute phase” and the “pathologic examination (peritoneum, lungs, liver)” value ([2]; ANP pre-treated, 24 hours after CLP) was “less peritoneal inflammation, pulmonary septal thickening, and hepatic inflammation; also recorded: lower or absent pulmonary septal thickening and vacuolization”.

`C[C@](N)(Cc1ccc(O)cc1)C(=O)O` [metyrosine, α-methyl-tyrosine] was tested, and the cytokine release ([1]; LPS 50 μg/ml, 24 hours) was “similarly inhibited”, the catecholamine production [1, 3] was “greatly reduced; also recorded: effectively blocked” and the catecholamines produced [1, 4] was “greatly reduced”. For the same compound, the cytokines released [1, 4] was “diminished”, the “circulating pro-inflammatory cytokines after CLP” value ([2]; 24 hours after CLP) was “substantially reduced” and the “mice surviving CLP (acute phase)” value ([2]; metyrosine IP pre-treatment) was 20% and 22%. For the same compound, the “fraction of mice surviving CLP” value ([2]; metyrosine pre-treatment plus imipenem from 20 hours after CLP) was “> ⅔”.
